In the NIST ThermoML archive (doi:10.1016/j.jct.2017.08.004):
Several values for one entry are separate records, joined by “and”; a condition that tells them apart may be missing. Equal values may be shown once. ± gives the expanded uncertainty stated by the source.

Experiment: molar heat capacity at constant pressure
Settings: 101.33 kPa, Crystal

OC[C@@H](O)[C@H](O)[C@@H](O)CO [xylitol]
Settings	molar heat capacity at constant pressure
1 K, relaxation calorimetry	0.0008271 ± 0.00012 J/K/mol
1.922 K, relaxation calorimetry	0.005594 ± 0.00049 J/K/mol
2 K, relaxation calorimetry	0.006331 ± 0.00044 J/K/mol
2.139 K, relaxation calorimetry	0.007737 ± 0.00065 J/K/mol
2.374 K, relaxation calorimetry	0.01068 ± 0.00082 J/K/mol
2.635 K, relaxation calorimetry	0.0145 ± 0.0011 J/K/mol
2.93 K, relaxation calorimetry	0.02028 ± 0.0015 J/K/mol
3 K, relaxation calorimetry	0.02164 ± 0.0014 J/K/mol
3.25 K, relaxation calorimetry	0.02792 ± 0.002 J/K/mol
3.603 K, relaxation calorimetry	0.03808 ± 0.0027 J/K/mol
4 K, relaxation calorimetry	0.05265 ± 0.0038 J/K/mol and 0.05269 ± 0.0033 J/K/mol
4.437 K, relaxation calorimetry	0.07193 ± 0.0051 J/K/mol
4.924 K, relaxation calorimetry	0.1019 ± 0.0072 J/K/mol
5 K, relaxation calorimetry	0.1065 ± 0.0067 J/K/mol
5.466 K, relaxation calorimetry	0.1404 ± 0.0099 J/K/mol
6 K, relaxation calorimetry	0.191 ± 0.012 J/K/mol
6.063 K, relaxation calorimetry	0.1974 ± 0.014 J/K/mol
6.726 K, relaxation calorimetry	0.2771 ± 0.019 J/K/mol
7 K, relaxation calorimetry	0.3152 ± 0.02 J/K/mol
7.46 K, relaxation calorimetry	0.3882 ± 0.027 J/K/mol
8 K, relaxation calorimetry	0.4898 ± 0.03 J/K/mol
8.276 K, relaxation calorimetry	0.5472 ± 0.038 J/K/mol
9 K, relaxation calorimetry	0.7186 ± 0.044 J/K/mol
9.181 K, relaxation calorimetry	0.7649 ± 0.054 J/K/mol
10 K, relaxation calorimetry	1.004 ± 0.062 J/K/mol
10.2 K, relaxation calorimetry	1.063 ± 0.074 J/K/mol
11.29 K, relaxation calorimetry	1.456 ± 0.1 J/K/mol
12.52 K, relaxation calorimetry	1.978 ± 0.14 J/K/mol
13.9 K, relaxation calorimetry	2.652 ± 0.18 J/K/mol
15 K, relaxation calorimetry	3.243 ± 0.2 J/K/mol
15.43 K, relaxation calorimetry	3.486 ± 0.24 J/K/mol
17.11 K, relaxation calorimetry	4.536 ± 0.32 J/K/mol
19 K, relaxation calorimetry	5.817 ± 0.41 J/K/mol
20 K, relaxation calorimetry	6.537 ± 0.4 J/K/mol
21.08 K, relaxation calorimetry	7.334 ± 0.3 J/K/mol
23.4 K, relaxation calorimetry	9.137 ± 0.37 J/K/mol
25 K, relaxation calorimetry	10.45 ± 0.64 J/K/mol
25.98 K, relaxation calorimetry	11.24 ± 0.46 J/K/mol
28.85 K, relaxation calorimetry	13.71 ± 0.56 J/K/mol
30 K, relaxation calorimetry	14.71 ± 0.9 J/K/mol
32.02 K, relaxation calorimetry	16.53 ± 0.67 J/K/mol
35 K, relaxation calorimetry	19.23 ± 1.2 J/K/mol
35.54 K, relaxation calorimetry	19.78 ± 0.8 J/K/mol
39.45 K, relaxation calorimetry	23.43 ± 0.95 J/K/mol
40 K, relaxation calorimetry	23.95 ± 1.5 J/K/mol
43.77 K, relaxation calorimetry	27.59 ± 1.1 J/K/mol
45 K, relaxation calorimetry	28.76 ± 1.8 J/K/mol
48.58 K, relaxation calorimetry	32.08 ± 1.3 J/K/mol
50 K, relaxation calorimetry	33.53 ± 2.1 J/K/mol
53.91 K, relaxation calorimetry	37.13 ± 1.5 J/K/mol
55 K, relaxation calorimetry	38.17 ± 2.3 J/K/mol
59.82 K, relaxation calorimetry	42.74 ± 1.7 J/K/mol
60 K, relaxation calorimetry	42.76 ± 2.6 J/K/mol
65 K, relaxation calorimetry	47.51 ± 2.9 J/K/mol
66.39 K, relaxation calorimetry	48.78 ± 2 J/K/mol
70 K, relaxation calorimetry	52.03 ± 3.2 J/K/mol
73.7 K, relaxation calorimetry	55.27 ± 2.2 J/K/mol
75 K, relaxation calorimetry	56.38 ± 3.5 J/K/mol
80 K, relaxation calorimetry	60.61 ± 3.7 J/K/mol
81.8 K, relaxation calorimetry	62.47 ± 2.5 J/K/mol
85 K, relaxation calorimetry	64.74 ± 4 J/K/mol
90 K, relaxation calorimetry	68.78 ± 4.2 J/K/mol
90.79 K, relaxation calorimetry	69.45 ± 2.8 J/K/mol
95 K, relaxation calorimetry	72.72 ± 4.5 J/K/mol
100 K, relaxation calorimetry	76.57 ± 4.7 J/K/mol
100.73 K, relaxation calorimetry	76.61 ± 3.1 J/K/mol
110 K, relaxation calorimetry	84.01 ± 5.1 J/K/mol
110.86 K, relaxation calorimetry	84.59 ± 3.4 J/K/mol
120 K, relaxation calorimetry	91.15 ± 5.6 J/K/mol
120.92 K, relaxation calorimetry	91.94 ± 3.7 J/K/mol
130 K, relaxation calorimetry	98.03 ± 6 J/K/mol
130.99 K, relaxation calorimetry	98.86 ± 4 J/K/mol
140 K, relaxation calorimetry	104.68 ± 6.4 J/K/mol
141.06 K, relaxation calorimetry	105.29 ± 4.3 J/K/mol
150 K, relaxation calorimetry	111.17 ± 6.8 J/K/mol
151.18 K, relaxation calorimetry	112.01 ± 4.5 J/K/mol
160 K, relaxation calorimetry	117.52 ± 7.2 J/K/mol
161.27 K, relaxation calorimetry	118.23 ± 4.8 J/K/mol
170 K, relaxation calorimetry	123.79 ± 7.6 J/K/mol
171.37 K, relaxation calorimetry	124.62 ± 5.1 J/K/mol
180 K, relaxation calorimetry	130 ± 8 J/K/mol
181.44 K, relaxation calorimetry	131.13 ± 5.3 J/K/mol
188.15 K, Small sample (50 mg) DSC	129.73 ± 8 J/K/mol
189.15 K, Small sample (50 mg) DSC	130.13 ± 8 J/K/mol
190 K, relaxation calorimetry	136.19 ± 8.3 J/K/mol
190.15 K, Small sample (50 mg) DSC	131.3 ± 8.1 J/K/mol
191.15 K, Small sample (50 mg) DSC	132.22 ± 8.2 J/K/mol
191.51 K, relaxation calorimetry	137.32 ± 5.6 J/K/mol
192.15 K, Small sample (50 mg) DSC	132.97 ± 8.2 J/K/mol
193.15 K, Small sample (50 mg) DSC	133.63 ± 8.2 J/K/mol
194.15 K, Small sample (50 mg) DSC	134.85 ± 8.3 J/K/mol
195.15 K, Small sample (50 mg) DSC	136.05 ± 8.4 J/K/mol
196.15 K, Small sample (50 mg) DSC	137.13 ± 8.4 J/K/mol
197.15 K, Small sample (50 mg) DSC	137.99 ± 8.5 J/K/mol
198.15 K, Small sample (50 mg) DSC	138.87 ± 8.6 J/K/mol
199.15 K, Small sample (50 mg) DSC	139.73 ± 8.6 J/K/mol
200 K, relaxation calorimetry	142.38 ± 8.7 J/K/mol
200.15 K, Small sample (50 mg) DSC	140.65 ± 8.7 J/K/mol
201.15 K, Small sample (50 mg) DSC	141.4 ± 8.7 J/K/mol
201.63 K, relaxation calorimetry	143.25 ± 5.8 J/K/mol
202.15 K, Small sample (50 mg) DSC	142.18 ± 8.8 J/K/mol
203.15 K, Small sample (50 mg) DSC	143.08 ± 8.8 J/K/mol
204.15 K, Small sample (50 mg) DSC	143.76 ± 8.9 J/K/mol
205.15 K, Small sample (50 mg) DSC	144.29 ± 8.9 J/K/mol
206.15 K, Small sample (50 mg) DSC	145.08 ± 8.9 J/K/mol
207.15 K, Small sample (50 mg) DSC	145.87 ± 9 J/K/mol
208.15 K, Small sample (50 mg) DSC	146.4 ± 9 J/K/mol
209.15 K, Small sample (50 mg) DSC	147.11 ± 9.1 J/K/mol
210 K, relaxation calorimetry	148.6 ± 9.1 J/K/mol
210.15 K, Small sample (50 mg) DSC	147.83 ± 9.1 J/K/mol
211.15 K, Small sample (50 mg) DSC	148.54 ± 9.2 J/K/mol
211.72 K, relaxation calorimetry	149.26 ± 6.1 J/K/mol
212.15 K, Small sample (50 mg) DSC	149.22 ± 9.2 J/K/mol
213.15 K, Small sample (50 mg) DSC	149.76 ± 9.2 J/K/mol
214.15 K, Small sample (50 mg) DSC	150.56 ± 9.3 J/K/mol
215.15 K, Small sample (50 mg) DSC	151.28 ± 9.3 J/K/mol
216.15 K, Small sample (50 mg) DSC	152.02 ± 9.4 J/K/mol
217.15 K, Small sample (50 mg) DSC	152.63 ± 9.4 J/K/mol
218.15 K, Small sample (50 mg) DSC	153.29 ± 9.4 J/K/mol
219.15 K, Small sample (50 mg) DSC	154.13 ± 9.5 J/K/mol
220 K, relaxation calorimetry	154.86 ± 9.5 J/K/mol
220.15 K, Small sample (50 mg) DSC	154.86 ± 9.6 J/K/mol
221.15 K, Small sample (50 mg) DSC	155.65 ± 9.6 J/K/mol
221.81 K, relaxation calorimetry	156.12 ± 6.3 J/K/mol
222.15 K, Small sample (50 mg) DSC	156.3 ± 9.6 J/K/mol
223.15 K, Small sample (50 mg) DSC	157.01 ± 9.7 J/K/mol
224.15 K, Small sample (50 mg) DSC	157.66 ± 9.7 J/K/mol
225.15 K, Small sample (50 mg) DSC	158.24 ± 9.8 J/K/mol
226.15 K, Small sample (50 mg) DSC	158.84 ± 9.8 J/K/mol
227.15 K, Small sample (50 mg) DSC	159.41 ± 9.8 J/K/mol
228.15 K, Small sample (50 mg) DSC	160.16 ± 9.9 J/K/mol
229.15 K, Small sample (50 mg) DSC	160.62 ± 9.9 J/K/mol
230 K, relaxation calorimetry	161.19 ± 9.9 J/K/mol
230.15 K, Small sample (50 mg) DSC	161.2 ± 9.9 J/K/mol
231.15 K, Small sample (50 mg) DSC	162.12 ± 10 J/K/mol
231.89 K, relaxation calorimetry	162.24 ± 6.6 J/K/mol
232.15 K, Small sample (50 mg) DSC	162.73 ± 10 J/K/mol
233.15 K, Small sample (50 mg) DSC	163.22 ± 10 J/K/mol
234.15 K, Small sample (50 mg) DSC	164.01 ± 10 J/K/mol
235.15 K, Small sample (50 mg) DSC	164.81 ± 10 J/K/mol
236.15 K, Small sample (50 mg) DSC	165.55 ± 10 J/K/mol
237.15 K, Small sample (50 mg) DSC	166.14 ± 10 J/K/mol
238.15 K, Small sample (50 mg) DSC	166.88 ± 10 J/K/mol
239.15 K, Small sample (50 mg) DSC	167.65 ± 10 J/K/mol
240 K, relaxation calorimetry	167.6 ± 10 J/K/mol
240.15 K, Small sample (50 mg) DSC	168.23 ± 10 J/K/mol
241.15 K, Small sample (50 mg) DSC	168.92 ± 10 J/K/mol
241.89 K, relaxation calorimetry	168.66 ± 6.8 J/K/mol
242.15 K, Small sample (50 mg) DSC	169.52 ± 10 J/K/mol
243.15 K, Small sample (50 mg) DSC	170.22 ± 10 J/K/mol
244.15 K, Small sample (50 mg) DSC	170.79 ± 11 J/K/mol
245.15 K, Small sample (50 mg) DSC	171.35 ± 11 J/K/mol
246.15 K, Small sample (50 mg) DSC	172.07 ± 11 J/K/mol
247.15 K, Small sample (50 mg) DSC	172.62 ± 11 J/K/mol
248.15 K, Small sample (50 mg) DSC	173.32 ± 11 J/K/mol
249.15 K, Small sample (50 mg) DSC	173.97 ± 11 J/K/mol
250 K, relaxation calorimetry	174.1 ± 11 J/K/mol
250.15 K, Small sample (50 mg) DSC	174.75 ± 11 J/K/mol
251.15 K, Small sample (50 mg) DSC	175.38 ± 11 J/K/mol
252.05 K, relaxation calorimetry	175.66 ± 7.1 J/K/mol
252.15 K, Small sample (50 mg) DSC	176.09 ± 11 J/K/mol
253.15 K, Small sample (50 mg) DSC	176.77 ± 11 J/K/mol
254.15 K, Small sample (50 mg) DSC	177.72 ± 11 J/K/mol
255.15 K, Small sample (50 mg) DSC	178.41 ± 11 J/K/mol
256.15 K, Small sample (50 mg) DSC	179.25 ± 11 J/K/mol
257.15 K, Small sample (50 mg) DSC	180.21 ± 11 J/K/mol
258.15 K, Small sample (50 mg) DSC	180.68 ± 11 J/K/mol
259.15 K, Small sample (50 mg) DSC	181.27 ± 11 J/K/mol
260 K, relaxation calorimetry	180.7 ± 11 J/K/mol
260.15 K, Small sample (50 mg) DSC	182.15 ± 11 J/K/mol
